Like-named read-outs stand apart in the source and are kept apart here.
How the values were obtained:
human recombinant BACE1 = human recombinant BACE1 (Homo sapiens, UniProt P56817); assay: biochemical; assay type: biochemical; conditions: n: 3; for BACE1 Inhibition (Inhibition% ± SD): 10 mM stock concentration; for IC50: BACE1
Method: Fluorescence resonance energy transfer (FRET) technology was used to measure the enzymatic activity of BACE1, and measurements were performed by modifying previously used methods and the protocol included in the manufacturer’s (PanVera® Corporation, Madison, […], USA) assay kit. […] The inhibition rate was obtained using the following equation:Inhibition% = [1 − (B − B0)/(K − K0)] × 100
• K0 = fluorescence value of the control group at minute 0 • K = fluorescence value of the control group at 60 min • B0 = fluorescence value of the test compound at minute 0 • B = fluorescence value of the test compound at 60 min

[1] = test system: SH-SY5Y human neuroblastoma cells; assay type: cell-based; conditions: 24 h
Method: SH-SY5Y, a human neuroblastoma cell line (purchased from ATCC®, Cat. No. CRL-2266™), was maintained in Dulbecco’s Modified Eagle Medium/Nutrient Mixture F-12 (DMEM/F-12) complemented with 10% heat-inactivated fetal bovine serum (FBS) and 1% penicillin–streptomycin after being processed for 30 min at 56 °C. Cells were cultivated in a sterile incubator at 37 °C with 5% CO2 and 95% relative humidity.
Cells were maintained in Dulbecco’s Modified Eagle’s Medium (DMEM)/nutrient mixture F-12 (DMEM/F-12) containing 1% penicillin–streptomycin supplemented with 10% fetal bovine serum (FBS) heat-inactivated at 56 °C for 30 min. Cells were cultured in a sterile incubator at 37 °C with 5% CO2 and 95% humidity. Then, 10,000 SH-SY5Y cells in 100 µL of complete medium were seeded in each well of a 96-well plate and incubated for 16–24 h for surface attachment. […] Then, 10 µL of filter-sterilized 0.015% resazurin solution (Sigma-Aldrich, R7017) was added to each well and incubated for 2 h at 37 °C with 5% CO2. Excitation at 560 nm wavelength and emission fluorescence at 590 nm wavelength were measured, and cell viability% was calculated compared to the control group.

ABCA7 = assay: RT-PCR gene expression in SH-SY5Y cells; assay type: cell-based, human; conditions: 24 h at IC08, vs DMSO control, normalized to β-actin
Method: (§1) In the RNA isolation protocol, cell pellets were homogenized using 1 mL of TRIzol reagent and incubated for 5 min at room temperature. Chloroform (200 μL) was added, and the mixture was shaken vigorously and incubated for 3 min at room temperature. The mixture was then centrifuged at 10,000 rpm for 15 min at +4 °C, and the upper colorless phase was transferred to an RNase-free microcentrifuge tube. Isopropanol (500 μL) was added to the tube, and the mixture was incubated at room temperature for 10 min and centrifuged at 10,000 rpm for 10 min. The supernatant was removed, and the pellet was washed with at least 75% ethanol (1 mL) and centrifuged at 7500 rpm for 5 min at +4 °C. After removing all of the supernatant from the tube and air-drying the pellet, the RNA-containing pellet was dissolved in approximately 100 μL of nuclease-free water and incubated at 55 °C for 5 min. RNA was stored at -80 °C for long-term storage. cDNA synthesis was performed using the ABM, OneScript® Plus cDNA synthesis kit (Applied Biological Materials Inc. (abm), Richmond, BC, Canada). A mixture of RNA (2000 ng/μL), dNTPs (1 μL), oligo (dT) primer (1 μL), […], and up to 13 μL of nuclease-free water was prepared and incubated at 65 °C for 5 min as described in the protocol supplied with the kit. After incubating the mixture on ice for 1 min, 4 μL of 5X RT buffer and 1 μL of OneScript® Plus RTase were added to the tube. The mixture was incubated at 50 °C for 50 min and 85 °C for 5 min. cDNA was stored at -20 °C for long-term storage. Real-time PCR was performed using ABM, BlasTaqTM 2X qPCR MasterMix, and the CFX Connect real-time system. […] DMSO, the solvent for dissolving the phenolic compounds, was used as the control group. The Qiagen GeneGlobe Complimentary qPCR Data Analysis Portal (Redwood City, CA, USA), utilizing default parameters, was employed to calculate changes in gene expression. CT values were exported from the BioRad CFX Connect real-time qPCR system and normalized against a reference gene. The p-value was derived from a Student's t-test applied to the replicate 2^-ΔΔCT values for each gene in the comparisons between the control and test groups. The p-value calculation employed was derived from a parametric, unpaired, two-sample equal variance, two-tailed distribution, a method that is widely recognized in the scientific literature. Fold change calculations, representing gene expression ratios, were determined using the established ΔΔCT method as initially described by Livak and Schmittgen. […] Multiple groups were compared by ANOVA and Dunnet post hoc test.

APOE = assay: RT-PCR gene expression in SH-SY5Y cells; assay type: cell-based, human; conditions: 24 h at IC08, vs DMSO control, normalized to β-actin
Method: as §1

APP = assay: RT-PCR gene expression in SH-SY5Y cells; assay type: cell-based, human; conditions: 24 h at IC08, vs DMSO control, normalized to β-actin
Method: as §1

BIN1 = assay: RT-PCR gene expression in SH-SY5Y cells; assay type: cell-based, human; conditions: 24 h at IC08, vs DMSO control, normalized to β-actin
Method: as §1

CCL5 = assay: RT-PCR gene expression in SH-SY5Y cells; assay type: cell-based, human; conditions: 24 h at IC08, vs DMSO control, normalized to β-actin
Method: as §1

CD2AP = assay: RT-PCR gene expression in SH-SY5Y cells; assay type: cell-based, human; conditions: 24 h at IC08, vs DMSO control, normalized to β-actin
Method: as §1

CD33 = assay: RT-PCR gene expression in SH-SY5Y cells; assay type: cell-based, human; conditions: 24 h at IC08, vs DMSO control, normalized to β-actin
Method: as §1

CLU = assay: RT-PCR gene expression in SH-SY5Y cells; assay type: cell-based, human; conditions: 24 h at IC08, vs DMSO control, normalized to β-actin
Method: as §1

CR1 = assay: RT-PCR gene expression in SH-SY5Y cells; assay type: cell-based, human; conditions: 24 h at IC08, vs DMSO control, normalized to β-actin
Method: as §1

MMP9 = assay: RT-PCR gene expression in SH-SY5Y cells; assay type: cell-based, human; conditions: 24 h at IC08, vs DMSO control, normalized to β-actin
Method: as §1

PICALM = assay: RT-PCR gene expression in SH-SY5Y cells; assay type: cell-based, human; conditions: 24 h at IC08, vs DMSO control, normalized to β-actin
Method: as §1

PSEN1 = assay: RT-PCR gene expression in SH-SY5Y cells; assay type: cell-based, human; conditions: 24 h at IC08, vs DMSO control, normalized to β-actin
Method: as §1

SORL1 = assay: RT-PCR gene expression in SH-SY5Y cells; assay type: cell-based, human; conditions: 24 h at IC08, vs DMSO control, normalized to β-actin
Method: as §1

TNF = assay: RT-PCR gene expression in SH-SY5Y cells; assay type: cell-based, human; conditions: 24 h at IC08, vs DMSO control, normalized to β-actin
Method: as §1

BACT = assay: RT-PCR gene expression in SH-SY5Y cells (reference gene); assay type: cell-based, human; conditions: 24 h at IC08, β-actin, the normalizing reference gene
Method: as §1

APP/PS1 transgenic mice = test system: APP/PS1 transgenic mice; set-up: method as in PMID 32913125; conditions: 6 months at 20 mg/kg b.w.; cited from earlier work
BACE1 = conditions: earlier study, cited from earlier work
[2] = concentration with 8% inhibition (92% viability), SH-SY5Y, Mean ± SD
[3] = read-out: IC50 (inhibitory effect against BACE1)

Chain of human recombinant BACE1 (P56817 46-501): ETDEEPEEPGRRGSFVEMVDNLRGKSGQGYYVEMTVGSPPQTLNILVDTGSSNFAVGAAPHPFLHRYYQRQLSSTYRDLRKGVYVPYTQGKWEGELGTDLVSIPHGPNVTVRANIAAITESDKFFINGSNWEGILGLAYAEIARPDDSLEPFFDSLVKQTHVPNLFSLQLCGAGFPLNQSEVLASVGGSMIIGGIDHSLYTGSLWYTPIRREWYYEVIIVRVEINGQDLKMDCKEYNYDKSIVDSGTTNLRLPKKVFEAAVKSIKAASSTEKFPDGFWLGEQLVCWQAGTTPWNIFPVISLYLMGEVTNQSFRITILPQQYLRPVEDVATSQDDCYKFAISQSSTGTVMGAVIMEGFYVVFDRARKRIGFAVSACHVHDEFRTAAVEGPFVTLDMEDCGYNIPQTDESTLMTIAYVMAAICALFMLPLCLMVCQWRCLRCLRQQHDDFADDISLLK

Structure (SMILES) | BACE1 Inhibition (Inhibition% ± SD) (human recombinant BACE1) [%] | IC08 Values [1, 2] [µM] | Fold Regulation ABCA7 (ABCA7) | Fold Regulation APOE (APOE) | Fold Regulation APP (APP) | Fold Regulation BIN1 (BIN1) | Fold Regulation CCL5 (CCL5) | Fold Regulation CD2AP (CD2AP) | Fold Regulation CD33 (CD33) | Fold Regulation CLU (CLU) | Fold Regulation CR1 (CR1) | Fold Regulation MMP9 (MMP9) | Fold Regulation PICALM (PICALM) | Fold Regulation PSEN1 (PSEN1) | Fold Regulation SORL1 (SORL1) | Fold Regulation TNF (TNF) | Fold Regulation BACT (BACT) | IC50 (human recombinant BACE1) [µM] | IC08 Values ([1]; human) [µM] | IC50 (BACE1; [3]) [µM] | further results
O=C(O)c1cc(O)c(O)c(O)c1 [Gallic acid, 3,4,5-trihydroxybenzoic acid] | 27.51 ± 2.97 | 187 ± 7.11 | 1.55 | −1.07 | 1.15 | 1.16 | 1.92 | 1.15 | 2.40 | −1.11 | 2.20 | 3.14 | 1.22 | −1.11 | 1.65 | 2.06 | 1.00 |  |  |  | BACE1 Inhibition (Inhibition% ± SD) (human recombinant BACE1; listed as gallic acid): below 50%; spatial reference learning and memory impairment (APP/PS1 transgenic mice): totally reversed
O=c1c(O)c(-c2ccc(O)c(O)c2)oc2cc(O)cc(O)c12 [Quercetin, 3,3′,4′,5,7-pentahydroxyflavone, reference compound] | 86.87 ± 4.48 | 27 ± 5.30 |  |  |  |  |  |  |  |  |  |  |  |  |  |  |  |  |  |  | 
O=C(O[C@@H]1Cc2c(O)cc(O)cc2O[C@@H]1c1cc(O)c(O)c(O)c1)c1cc(O)c(O)c(O)c1 [EGCG, epigallocatechin gallate] |  | 103 ± 12.47 |  |  |  |  |  |  |  |  |  |  |  |  |  |  |  |  |  |  | 
O=C(/C=C/c1ccc(O)c(O)c1)O[C@H](Cc1ccc(O)c(O)c1)C(=O)O [Rosmarinic acid, rosmarinic acid] | 67.04 ± 0.64 |  | −1.07 | 1.45 | 1.01 | 1.33 | 1.82 | 1.08 | 1.88 | 1.11 | 1.34 | 3.02 | 1.32 | 1.55 | 1.23 | 1.75 | 1.00 | 4060 ± 680 | 546 ± 31.55 |  | IC50 (BACE1; read-out: IC50 (BACE1 inhibitory potential)): 21 µM
OCCc1ccc(O)c(O)c1 [3-Hydroxytyrosol, 3-hydroxytyrosol] | 45.33 ± 0.22 | 278 ± 12.21 | 1.82 | −1.17 | −1.07 | 1.87 | 3.61 | 1.36 | 2.88 | 1.15 | 2.86 | 4.38 | 1.21 | −1.08 | 1.81 | 2.04 | 1.00 | > 10000 |  | 0.035 ± 0.04 | BACE1 Inhibition (Inhibition% ± SD) (human recombinant BACE1; listed as 3-hydroxytyrosol): below 50%
C/C=C1/[C@H](O[C@@H]2O[C@H](CO)[C@@H](O)[C@H](O)[C@H]2O)OC=C(C(=O)OC)[C@H]1CC(=O)OCCc1ccc(O)c(O)c1 [Oleuropein, oleuropein] | 52.38 ± 2.08 |  | 2.42 | −1.33 | 1.05 | −1.14 | 2.67 | 1.31 | 3.88 | −1.78 | 3.45 | 5.31 | 1.43 | −1.07 | 1.90 | 2.09 | 1.00 | 9870 ± 1010 | 171 ± 22.01 | 2.76 ± 0.23 | 

Source: publication PMC11597167, “Evaluation of Selected Plant Phenolics via Beta-Secretase-1 Inhibition, Molecular Docking, and Gene Expression Related to Alzheimer’s Disease” (Pharmaceuticals, 2024)
